5 compounds from patent publication US20030113322A1, “CDR-H1-derived peptide CB11, pharmaceutical compositions made therefrom and methods of treating disorders in mammals” (priority 2001, published 2003) can be followed below.

In data set [1] the test system is HeLa P4 indicator cells infected with HIV-1Lai. In words: HIV-1 promoter activation assay (LTR-driven β-galactosidase). It counts as cell-based. How it is done:
HeLa P4 indicator cells (8×10^4 cells/ml) were cultured in medium supplemented or not with infectious HIV-1Lai in the presence or absence of antibodies for three days, harvested and lysed. β-galactosidase activity was then determined as previously described by measuring the absorbance at 410 nm.
HeLa P4 indicator cells (8×10^4 cells/ml) were cultured in medium supplemented or not with 1000 TCID50 of infectious HIV-1Lai in the presence or absence of peptides or mAb for 3 days, harvested and lysed. The β-galactosidase activities were then determined as previously described by measuring the absorbance at 410 nm.

In another data set the target is T1, His6-sCD4 (Homo sapiens, UniProt P01730).
T1 construct: codons 1 to 6, and the anti-sense primer SCD4RTB (5′-[…]), which contains the reverse complement of codons 367 to 372; made in house; host or cells: Spodoptera frugiperda Sf9 cells, baculovirus (p119L vector, P10 promoter)
In words: ELISA binding of His6-sCD4 to coated cyclic PDPs. The settings on record: 20 nM His6-sCD4, FIG. 8. The procedure:
Three replicates corresponding to 10-fold serial dilutions of the nine cyclic PDPs (CB1-CB9) were coated overnight at 4° C. onto 96-well ELISA plates (Nunc. Paisley, UK) with an initial peptide concentration of 50 μM. Four washes in 160 mM PBS, pH 7.2, containing 0.1% Tween 20 (PBS-T) were performed before and after saturating the wells with 1% non-fat dry milk in PBT-T for 1 h at 37° C. Thereafter, 100 μl of 20 nM His6-sCD4 was added to each well. Following a 2 h incubation and four washes in PBS-T, bound His6-sCD4 was detected by addition of 100 μl of a 1:2000 solution of peroxidase-conjugated anti-His6 mAb (Sigma) and subsequent addition of peroxidase substrate. Absorbance was measured at 490 nm.

Data set [2] relates to pdb10F T cells stimulated by pep24-pulsed EBV-Lu antigen-presenting cells. Briefly: IL-2 secretion assay following antigen presentation. It counts as cell-based, murine. The settings on record: for inhibition of IL2 secretion: Example 2, Table 1 (table not given).
The format of data set [3] is in vitro ADME. From the text: A relatively high concentration of peptides is preferred to achieve efficient biological activity with regard to the efficient antibody dose. […] We believe that use of D-amino acids for peptide synthesis would improve their metabolic stability.
The mark [4] stands for this setting: peptide diluted in 20% acetonitrile buffer.

Positions of bridges follow the written chain, without caps; N, C: chain ends. Residues, ends and D or L forms follow the SMILES beside them. No end group written: not given here.

“FGDYYCLQYASS (not fully specified (N-terminus, C-terminus, bridges); also: cyclized (bridge not given here)) [Dig97c, unrelated peptide derived from the CDR-L3 region of the anti-digoxin 1C10 mAb, reference compound]”: the “inhibition of HIV-1Lai LTR-driven β-galactosidase expression” value in data set [1] (Example 2, 3 days, FIG. 10A) is recorded as “did not affect”.
With “KEEICEVEDQTY (not fully specified (N-terminus, C-terminus, bridges); also: cyclized (bridge not given here)) [ScCDR3-like, scrambled form of the CD4-derived CDR3-like peptide]”, the “CD4 binding of coated cyclic peptide” value in the data set with His6-sCD4 was “non-reactivity”.
In the case of “GSDQWNKMQYYP (not fully specified (N-terminus, C-terminus, bridges); also: cyclized (bridge not given here)) [ScCM9, scrambled form of PDP CM9, Lys-Cys added at both termini, reference compound]”, in data set [1] (Example 2, 3 days, FIG. 10A), the “inhibition of HIV-1Lai LTR-driven β-galactosidase expression” value was “did not affect”. Besides, the “CD4 binding of coated cyclic peptide” value with His6-sCD4 is “non-reactivity”. In addition, the “inhibition of IL2 secretion” value in data set [2] is listed as “no inhibition”.
One may read the IC50 as the midpoint of a concentration-inhibition curve. In the case of `CC(C)C[C@@H]1NC(=O)[C@@H](NC(=O)[C@@H](N)CCCCN)CSSC[C@@H](C(=O)N[C@@H](CCCCN)C(N)=O)NC(=O)[C@H](CO)NC(=O)[C@H](CCC(N)=O)NC(=O)[C@H](CCCNC(=N)N)NC(=O)[C@H](C(C)C)NC(=O)[C@H](Cc2c[nH]c3ccccc23)NC(=O)[C@H](Cc2c[nH]cn2)NC(=O)[C@H](C(C)C)NC(=O)CNC(=O)[C@H](Cc2ccccc2)NC(=O)[C@H]([C@@H](C)O)NC(=O)[C@H]([C@@H](C)O)NC1=O` [CB1] (H-KCLTTFGVHWVRQSCK-NH2; disulfide 2-15; N-terminus and C-terminus assumed), the “inhibition of HIV-1Lai LTR-driven β-galactosidase expression” value in data set [1] (50 μM peptide, 3 days, FIG. 10A) is recorded as “significant inhibition”; in data set [1] (setting [4]) it was “no inhibition”. For the same compound, the half-inhibitory concentration (IC50) in data set [1] (FIG. 10B, read-out: IC50 of inhibition of β-galactosidase activity) is ~15 µM. Besides, in data set [3], the “decrease in binding of CD4 to peptide after pre-incubation” value is 50%. For the same compound, the “concentration range with inhibitory activity of IL2 secretion” value in data set [2] (Example 2) was in the range of 125 to 250 µM.
Turning to `CC[C@H](C)[C@@H]1NC(=O)[C@@H](NC(=O)[C@@H](N)CCCCN)CSSC[C@@H](C(=O)N[C@@H](CCCCN)C(N)=O)NC(=O)[C@H](CCC(N)=O)NC(=O)[C@H](CCCCN)NC(=O)[C@H](CCC(N)=O)NC(=O)[C@H](CCC(N)=O)NC(=O)[C@H](Cc2ccc(O)cc2)NC(=O)[C@H](Cc2c[nH]c3ccccc23)NC(=O)[C@H](C)NC(=O)[C@H](CC(C)C)NC(=O)[C@H](Cc2ccc(O)cc2)NC(=O)[C@H](CO)NC(=O)[C@H](Cc2ccc(O)cc2)NC1=O` [CB8] (H-KCIYSYLAWYQQKQCK-NH2; disulfide 2-15), the “inhibition of HIV-1Lai LTR-driven β-galactosidase expression” value in data set [1] (setting [4]) is “lack of activity”. Moreover, the “inhibition of IL2 secretion” value in data set [2] is listed as “lack of activity”.
